According to ChEMBL document CHEMBL5257097, “An Isomer of Galidesivir That Potently Inhibits Influenza Viruses and Members of the Bunyavirales Order” (ACS Med Chem Lett, 2023):

Experiments:
Junin virus = assay: Antiviral activity against Junin virus infected in African green monkey Vero E6 cells assessed as inhibition of viral replication by visual analysis; type: functional, organism-based; conditions: Mammarenavirus juninense, Vero C1008
[1] = Cytotoxicity against African green monkey Vero cells infected with Pichinde virus assessed as reduction in cell viability by neutral red dye based analysis; type: toxicity; conditions: chlorocebus sabaeus
[2] = (§1) Selectivity index, ratio of CC50 for cytotoxicity against African green monkey Vero cells infected with JUNV assessed as reduction in cell viability by neutral red dye based analysis to EC50 for antiviral activity against JUNV infected in African green monkey Vero cells assessed as reduction in viral replication by neutral red dye based analysis; type: toxicity; conditions: read-out: Ratio CC50/EC50
[3] = Cytotoxicity against African green monkey Vero E6 cells infected with Maporal virus assessed as reduction in cell viability; type: toxicity, cell-based, Vero C1008; conditions: chlorocebus sabaeus
[4] = as §1, with “dog MDCK” for “African green monkey Vero”, “Influenza A virus H1N1” for “JUNV”, “visual” for “neutral red dye based”, “EC90” for “EC50”, “yield” for “replication”; type: toxicity, cell-based
[5] = as §1, with “visual” for “neutral red dye based”; type: toxicity, cell-based; conditions: read-out: Ratio CC50/EC50
[6] = Cytotoxicity against dog MDCK cells infected with Influenza B virus assessed as reduction in cell viability by neutral red dye based analysis; type: toxicity, Canis lupus familiaris
[7] = as §1, with “Pichinde virus” for “JUNV”, “visual” for “neutral red dye based”; type: toxicity, cell-based; conditions: read-out: Ratio CC50/EC50
Influenza A virus [8] = assay: Antiviral activity against Influenza A virus H3N2 infected in dog MDCK cells assessed as reduction in virus yield measured after 3 days by visual analysis; type: functional; conditions: 72 h, time 3 day
[9] = Cytotoxicity against dog MDCK cells infected with Influenza A virus H1N1 assessed as reduction in cell viability by neutral red dye based analysis; type: toxicity, Canis lupus familiaris
[10] = Cytotoxicity against African green monkey Vero cells infected with Tacaribe virus assessed as reduction in cell viability by visual analysis; type: toxicity, cell-based; conditions: chlorocebus sabaeus
Rift Valley fever virus = assay: Antiviral activity against Rift Valley fever virus infected in African green monkey Vero 76 cells assessed as reduction in viral yield measured for 3 days; type: functional; conditions: Vero 76, 72 h, time 3 day
[11] = Cytotoxicity against African green monkey Vero E6 cells infected with Oropouche virus assessed as reduction in cell viability by visual analysis; type: toxicity, cell-based, Vero C1008; conditions: chlorocebus sabaeus
Tacaribe virus = assay: Antiviral activity against Tacaribe virus infected in African green monkey Vero cells assessed as inhibition of viral replication by neutral red dye based analysis; type: functional, organism-based; conditions: Mammarenavirus tacaribeense
Influenza B virus = assay: Antiviral activity against Influenza B virus infected in dog MDCK cells assessed as inhibition of viral replication measured after 15 to 30 mins by neutral red dye based analysis; type: functional, organism-based
[12] = (§2) Selectivity index, ratio of CC50 for cytotoxicity against African green monkey Vero 76 cells infected with Rift Valley fever virus assessed as reduction in cell viability to EC90 for antiviral activity against Rift Valley fever virus infected in African green monkey Vero 76 cells assessed as reduction in viral yield; type: toxicity, cell-based
[13] = Toxicity in BALB/c mouse infected with influenza A/Ca/04/09 (H1N1) assessed as mortality at 30 mg/kg, ip measured every day for 6 days; type: organism-based; conditions: in vivo, time 6 day, read-out: Activity
Influenza A virus [14] = assay: Antiviral activity against Influenza A virus H1N1 infected in dog MDCK cells assessed as reduction in virus yield measured after 3 days by visual analysis; type: functional; conditions: 72 h, time 3 day
[15] = Selectivity index, ratio of CC50 for cytotoxicity against dog MDCK cells infected with Influenza A virus H3N2 assessed as reduction in cell viability by visual analysis to EC90 for antiviral activity against Influenza A virus H3N2 infected in dog MDCK cells assessed as reduction in viral yield by visual analysis; type: toxicity, cell-based
[16] = as §2, with “E6” for “76”, “Heartland” for “Rift Valley fever”; type: toxicity, cell-based, Vero C1008
Marburgvirus = assay: Antiviral activity against Marburg virus infected in human HeLa cells assessed as reduction in viral cytopathic effect; type: functional, organism-based; conditions: Orthomarburgvirus
[17] = Cytotoxicity against vervet monkey MA-104 cells infected with MERS-CoV assessed as reduction in cell viability by neutral red dye based assay; type: toxicity; conditions: cercopithecus pygerythrus

SMILES: Nc1ncnn2c([C@@H]3N[C@H](CO)[C@@H](O)[C@H]3O)ccc12
- EC50 (Junin virus): 0.54 µM
- CC50 [1]: 8.4 µM
- selectivity ratio [2]: 34
- CC50 [3]: 13 µM
- selectivity ratio [4]: 240
- selectivity ratio [5]: 22
- CC50 [6]: 9.8 µM
- selectivity ratio [7]: 42
- EC90 (Influenza A virus [8]): 0.25 µM
- CC50 [9]: 14 µM
- CC50 [10]: 12 µM
- EC90 (Rift Valley fever virus): 0.097 µM
- CC50 [11]: 24 µM
- EC50 (Tacaribe virus): 0.33 µM
- EC50 (Influenza B virus): 0.26 µM
- selectivity ratio [12]: 78
- mortality at 144 h [13]: 15%
- EC90 (Influenza A virus [14]): 0.1 µM
- selectivity ratio [15]: 64
- selectivity ratio [16]: 97

SMILES: Nc1ncnc2c([C@@H]3N[C@H](CO)[C@@H](O)[C@H]3O)c[nH]c12 [GALIDESIVIR]
- EC50 (Marburgvirus): 3 µM
- CC50 [17]: > 100 µM
